# In patent publication US10577378B2, “EIF4A-inhibiting compounds and methods related thereto” (eFFECTOR Therapeutics, Inc., priority 2015, dated 2020):
# Like-named read-outs stand apart in the source and are kept apart here.
# Tested on: MDA-MB-231 human breast cancer cells
# Assay: Cell proliferation assay (CellTiter-Glo, 72 hours treatment)
# Format: cell-based
# Conditions: Homo sapiens, read-out: MDA-MB-231 cell proliferation assay (IC50)
# Outline: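 MDA-MB-231 cells seeded at 2,500 cells/well, treated next day with compound or DMSO vehicle for 72 h at 37 °C. Proliferation read by CellTiter-Glo; IC50 from sigmoidal non-linear regression, binned as +++ (<100 nM), ++ (100–1000 nM), + (>1000 nM).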
# [1] = MDA-MB-231 cells, 72 hours at 37° C., CellTiter-Glo
SMILES,IC50 [1] [µM],"IC50 (MDA-MB-231, 72 h) [µM]"
"COc1cncc2c1[C@]1(O)[C@@H](CNC3COC3)[C@H](CO)[C@@H](c3ccccc3)[C@]1(c1ccc(C#N)cc1)O2 (racemic) [186F, Rac-4-((4bR,5R,6R,7S,7aR)-4b-hydroxy-6-(hydroxymethyl)-4-methoxy-5-((oxetan-3-ylamino)-methyl)-7-phenyl-4b,5,6,7-tetrahydro-7aH-cyclopenta[4,5]furo[2,3-c]pyridin-7a-yl)-benzonitrile]",< 0.1,–
"COc1cncc2c1[C@]1(O)[C@@H](CNCc3ccncc3)[C@H](CO)[C@@H](c3ccccc3)[C@]1(c1ccc(Br)cc1)O2 (racemic) [187F, Rac-(4bR,5R,6R,7S,7aR)-7a-(4-bromophenyl)-6-(hydroxymethyl)-4-methoxy-7-phenyl-5-(((pyridin-4-ylmethyl)amino)methyl)-5,6,7,7a-tetrahydro-4bH-cyclopenta[4,5]furo[2,3-c]pyridin-4b-ol]",< 0.1,–
"COc1cncc2c1[C@]1(O)[C@@H](CNCc3ccncc3)[C@H](CO)[C@@H](c3ccccc3)[C@]1(c1ccc(C#N)cc1)O2 (racemic) [188F, Rac-4-((4bR,5R,6R,7S,7aR)-4b-hydroxy-6-(hydroxymethyl)-4-methoxy-7-phenyl-5-(((pyridin-4-ylmethyl)amino)methyl)-4b,5,6,7-tetrahydro-7aH-cyclopenta[4,5]furo[2,3-c]pyridin-7a-yl)benzonitrile]",< 0.1,–
"N#Cc1ccc([C@@]23Oc4cc(Cl)cnc4[C@]2(O)[C@H](O)[C@H](Sc2ccccn2)[C@H]3c2ccccc2)cc1 (racemic) [189F, Rac-4-((5aR,6S,7R,8S,8aS)-3-chloro-8,8a-dihydroxy-6-phenyl-7-(pyridin-2-ylthio)-6,7,8,8a-tetrahydro-5aH-cyclopenta[4,5]furo[3,2-b]pyridin-5a-yl)benzonitrile]",0.1 to 1,–
"C#CC1(O)C(C(=O)N(C)C)[C@@H](c2ccccc2)[C@]2(c3ccc(Br)cc3)Oc3cc(Cl)cnc3[C@]12O (mixture of isomers) [190F, rac-(5aR,6S,8aS)-5a-(4-bromophenyl)-3-chloro-8-ethynyl-8,8a-dihydroxy-N,N-dimethyl-6-phenyl-5a,7,8,8a-tetrahydro-6H-cyclopenta[4,5]furo[3,2-b]pyridine-7-carboxamide]",0.1 to 1,–
"CC#CC1(O)C(C(=O)N(C)C)[C@@H](c2ccccc2)[C@]2(c3ccc(Br)cc3)Oc3cc(Cl)cnc3[C@]12O (mixture of isomers) [191F, Rac-(5aR,6S,8aS)-5a-(4-bromophenyl)-3-chloro-8,8a-dihydroxy-N,N-dimethyl-6-phenyl-8-(prop-1-yn-1-yl)-5a,7,8,8a-tetrahydro-6H-cyclopenta[4,5]furo[3,2-b]pyridine-7-carboxamide]",0.1 to 1,–
"COc1cncc2c1[C@]1(O)C(=O)C(C(=O)N(C)C)[C@@H](c3ccccc3)[C@]1(c1ccc(Br)cc1)O2 (mixture of isomers) [192F, Rac-(4bR,7S,7aR)-7a-(4-bromophenyl)-4b-hydroxy-4-methoxy-N,N-dimethyl-5-oxo-7-phenyl-4b,6,7,7a-tetrahydro-5H-cyclopenta[4,5]furo[2,3-c]pyridine-6-carboxamide]",–,> 1
"COC(=O)[C@@H]1C(c2ccccc2)[C@]2(c3ccc(I)cc3)Oc3cncc(OC)c3[C@]2(O)[C@@H]1O (mixture of isomers) [193F, Rac-Methyl (4bS,5R,6R,7aR)-4b,5-dihydroxy-7a-(4-iodophenyl)-4-methoxy-7-phenyl-4b,6,7,7a-tetrahydro-5H-cyclopenta[4,5]furo[2,3-c]pyridine-6-carboxylate]",0.1 to 1,–
"COc1cncc2c1[C@]1(O)[C@H](O)[C@H](CN3CCN(C(C)=O)CC3)[C@@H](c3ccccc3)[C@]1(c1ccc(C#N)cc1)O2 (racemic) [194F, Rac-4-((4bS,5R,6S,7S,7aR)-6-((4-acetylpiperazin-1-yl)methyl)-4b,5-dihydroxy-4-methoxy-7-phenyl-4b,5,6,7-tetrahydro-7aH-cyclopenta[4,5]furo[2,3-c]pyridin-7a-yl)benzonitrile]",> 1,–
"COc1nc(Cl)cc2c1[C@]1(O)[C@H](O)[C@H](CNCC(F)F)[C@@H](c3ccccc3)[C@]1(c1ccc(C#N)cc1)O2 (racemic) [196F, Rac-4-((5aR,6S,7S,8R,8aS)-3-chloro-7-(((2,2-difluoroethyl)amino)methyl)-8,8a-dihydroxy-1-methoxy-6-phenyl-6,7,8,8a-tetrahydro-5aH-cyclopenta[4,5]furo[3,2-c]pyridin-5a-yl)benzonitrile]",< 0.1,–
"COc1nc(C#N)cc2c1[C@]1(O)[C@H](O)[C@H](CNCC(F)F)[C@@H](c3ccccc3)[C@]1(c1ccc(C#N)cc1)O2 (racemic) [197F, Rac-(5aR,6S,7S,8R,8aS)-5a-(4-cyanophenyl)-7-(((2,2-difluoroethyl)amino)methyl)-8,8a-dihydroxy-1-methoxy-6-phenyl-5a,7,8,8a-tetrahydro-6H-cyclopenta[4,5]furo[3,2-c]pyridine-3-carbonitrile]",0.1 to 1,–
"COc1nc(C#N)cc2c1[C@]1(O)[C@H](O)[C@H](CN3CCN(C)CC3)[C@@H](c3ccccc3)[C@]1(c1ccc(C#N)cc1)O2 (racemic) [198Fb, Rac-(5aR,6S,7S,8R,8aS)-5a-(4-cyanophenyl)-8,8a-dihydroxy-1-methoxy-7-((4-methylpiperazin-1-yl)methyl)-6-phenyl-5a,7,8,8a-tetrahydro-6H-cyclopenta[4,5]furo[3,2-c]pyridine-3-carbonitrile]",< 0.1,–
"COc1nc(Cl)cc2c1[C@]1(O)[C@@H](CN3CCOCC3)[C@H](CO)[C@@H](c3ccccc3)[C@]1(c1ccc(Br)cc1)O2 (racemic) [199F, Rac-(5aR,6S,7R,8R,8aR)-5a-(4-bromophenyl)-3-chloro-7-(hydroxymethyl)-1-methoxy-8-(morpholinomethyl)-6-phenyl-5a,6,7,8-tetrahydro-8aH-cyclopenta[4,5]furo[3,2-c]pyridin-8a-ol]",< 0.1,–
"COc1nc(C#N)cc2c1[C@]1(O)[C@@H](CN3CCOCC3)[C@H](CO)[C@@H](c3ccccc3)[C@]1(c1ccc(C#N)cc1)O2 (racemic) [200F, Rac-(5aR,6S,7R,8R,8aR)-5a-(4-cyanophenyl)-8a-hydroxy-7-(hydroxymethyl)-1-methoxy-8-(morpholinomethyl)-6-phenyl-5a,7,8,8a-tetrahydro-6H-cyclopenta[4,5]furo[3,2-c]pyridine-3-carbonitrile]",< 0.1,–
"COc1cncc2c1[C@]1(O)[C@@H](CN3CC4(COC4)C3)[C@H](CO)[C@@H](c3ccccc3)[C@]1(c1ccc(C#N)cc1)O2 (racemic) [202F, Rac-4-((4bR,5R,6R,7S,7aR)-5-((2-oxa-6-azaspiro[3.3]heptan-6-yl)methyl)-4b-hydroxy-6-(hydroxymethyl)-4-methoxy-7-phenyl-4b,5,6,7-tetrahydro-7aH-cyclopenta[4,5]furo[2,3-c]pyridin-7a-yl)benzonitrile]",< 0.1,–
"COc1cncc2c1[C@]1(O)[C@@H](CNCc3ccnn3C)[C@H](CO)[C@@H](c3ccccc3)[C@]1(c1ccc(Br)cc1)O2 (racemic) [203F, Rac-(4bR,5R,6R,7S,7aR)-7a-(4-bromophenyl)-6-(hydroxymethyl)-4-methoxy-5-((((1-methyl-1H-pyrazol-5-yl)methyl)amino)methyl)-7-phenyl-5,6,7,7a-tetrahydro-4bH-cyclopenta[4,5]furo[2,3-c]pyridin-4b-ol]",< 0.1,–
